Experimental data published in PubChem BioAssay (NCI).
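In this assay, cells in 96-well plates receive the compound at five concentrations for 48 hours. Endpoints are linearly interpolated between the surrounding concentrations. GI50: concentration for 50% inhibition of growth. TGI: total growth inhibition.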

Legend:
Experiment in all cases: growth of human tumour cells (NCI), 48 h
SR leukemia = system: SR leukemia
SNB-19 CNS = system: SNB-19 CNS
HT29 colon = system: HT29 colon
OVCAR-4 ovarian = system: OVCAR-4 ovarian
SK-MEL-5 melanoma = system: SK-MEL-5 melanoma
A498 renal = system: A498 renal
A549 NSCLC = system: A549 NSCLC
UO-31 renal = system: UO-31 renal
MDA-MB-435 = system: MDA-MB-435
DU-145 prostate = system: DU-145 prostate

Row | Compound | TGI (SR leukemia) [µM] | TGI (SNB-19 CNS) [µM] | TGI (HT29 colon) [µM] | TGI (OVCAR-4 ovarian) [µM] | TGI (SK-MEL-5 melanoma) [µM] | TGI (A498 renal) [µM] | TGI (A549 NSCLC) [µM] | TGI (UO-31 renal) [µM] | GI50 (SNB-19 CNS) [µM] | GI50 (HT29 colon) [nM] | GI50 (SK-MEL-5 melanoma) [nM] | GI50 (A498 renal) [µM] | GI50 (A549 NSCLC) [µM] | GI50 (UO-31 renal) [µM] | GI50 (OVCAR-4 ovarian) [µM] | GI50 (MDA-MB-435) [nM] | TGI (MDA-MB-435) [µM] | GI50 (DU-145 prostate) [µM] | TGI (DU-145 prostate) [µM] | GI50 (SR leukemia) [nM]
1 | COC(=O)C1C(OCc2ccccc2)C2CCC1(OC)C=C2C (stereo not given) | 66.6 | > 100 | > 100 | > 100 | > 100 | > 100 | > 100 | > 100 |  |  |  |  |  |  |  |  |  |  |  | 
2 | O=C(c1ccc(Cl)cc1)c1ccc(OCCSCCCCCCCCCCSCCOc2ccc(C(=O)c3ccc(Cl)cc3)cc2)cc1 |  | > 100 | > 100 |  | > 100 | > 100 | > 100 | > 100 |  |  |  |  |  |  |  |  |  |  |  | 
3 | C1=Nc2ccccc2C=Nc2ccccc2C=Nc2ccccc2C=Nc2ccccc21.[Cl-].[Pt+2] |  | > 100 | 52.5 |  | 48.3 | 61.5 | > 100 | 45.5 | 42.8 | 22300 | 18800 | 23.2 | 28.7 | 20.8 |  |  |  |  |  | 
4 | O=C(COc1cccc(/C=C2\CSc3ccccc3C2=O)c1)c1ccc(Cl)cc1 |  | 9.38 | 2.9 | > 42.1 | 3.41 | 8.69 | 65.6 | 3.32 | 3.18 | 1430 | 1800 | 3.95 | 11.8 | 1.63 | 3.09 | 1640 | 3.44 | 2.31 | 5.61 | 
5 | COc1cc(Nc2nc3ccc(C(F)(F)F)cc3nc2-c2ccccc2)cc(OC)c1OC | > 100 |  | 5.31 | > 100 | 59.4 | 78 | > 100 | 55.7 |  |  |  |  |  |  |  |  |  |  |  | 
6 | O=[N+]([O-])c1ccc2nc3ccccc3cc2c1 |  | 12.9 | 4.4 | 10.4 | 14.4 | 3.27 | 8.95 | 16.7 |  |  |  |  |  |  |  |  | 3.76 |  | 8.12 | 
7 | COc1cc(/C=C2\C(=O)Nc3cccc(Cl)c32)cc(OC)c1OC | 25.1 | > 100 | > 100 | > 100 | > 100 | > 100 | > 100 | > 100 | 60.1 | > 100000 | > 100000 | > 100 | > 100 | > 100 | > 100 | > 100000 | > 100 |  |  | 1550
8 | COc1cc2c(cn1)[nH]c1ccccc12 | > 100 | > 100 | > 100 | > 100 | > 100 |  | > 100 | > 100 |  |  |  |  |  |  |  |  |  |  |  | 
9 | NNC(=O)/C(NC(=O)c1ccccc1)=C(\N)c1ccc(Cl)cc1 | > 100 | > 100 | > 100 | > 100 | > 100 | > 100 | > 100 | > 100 |  |  |  |  |  |  |  |  |  |  |  | 
10 | CC(C)CN(CC(C)C)C(=O)C1CCCC[C@@H]1C(=O)O (stereo not given in full) | > 100 |  | > 100 | > 100 | > 100 | > 100 | > 100 | > 100 |  |  |  |  |  |  |  |  |  |  |  | 
11 | C=C1C[C@@]2(C)C(CC[C@]3(C)C2CC=C2C4CC(C)(C)C[C@@H](OC(=O)/C(C)=C\C)[C@]4(C(=O)O)CC[C@]23C)C(C)(C)C1=O (stereo not given in full) | 8.92 | 17.4 | 6.81 | 18.2 | 11.2 |  | 25.8 | 3.92 | 4.65 | 2550 | 3350 |  | 3.8 | 1.89 | 4.76 | 2830 | 8.61 | 4.37 | 16 | 1550
12 | NC(CC1=CCC=CC1)C(=O)O (stereo not given) |  | > 100 | > 100 | > 100 | > 100 | > 100 | > 100 | > 100 |  |  |  |  |  |  |  |  | > 100 |  | > 100 | 
13 | C=CCn1cc(C(=O)NC(=O)NCCCCCOC(=O)CCCCCCCCCCC(=O)OCCCCCNC(=O)NC(=O)c2cn(CC=C)c(=O)n(C)c2=O)c(=O)n(C)c1=O |  | > 100 | > 100 |  | > 100 | > 100 | > 100 | > 100 |  |  |  |  |  |  |  |  |  |  |  | 
14 | Cc1cccc(C)c1NC(=O)CCc1n[nH]c(=S)o1 |  | > 100 | > 100 | > 100 | > 100 | > 100 | > 100 | > 100 |  |  |  |  |  |  |  |  |  |  |  | 
15 | S=c1nc(N2CCCCC2)ss1 | 45.4 | 84.9 | 79.6 | > 100 | 30.5 | 43.3 | 83.7 | 39.6 |  |  |  |  |  |  |  |  |  |  |  | 
16 | CC(=O)/C=C/c1ccc(C)cc1 |  | > 100 | > 100 | > 100 | > 100 | > 100 | > 100 | > 100 |  |  |  |  |  |  |  |  |  |  |  | 
17 | Cc1[nH]nc2c1N=C(c1ccccc1Cl)c1cc([N+](=O)[O-])ccc1N2 | > 25 | > 25 | > 25 | > 25 | > 25 | 1.62 |  | > 25 | > 25 | 979 | 204 | 0.151 |  | 4.94 | 5.15 |  |  | 0.891 | > 25 | 110
18 | COc1ccc(-c2c(N)[n+]([O-])c3ccccc3[n+]2[O-])cc1OC | > 100 | > 100 | > 100 | > 100 | > 100 | > 100 | > 100 | > 100 |  |  |  |  |  |  |  |  |  |  |  | 
19 | Cc1c2c(cc3c(=O)ccn(CCN(C)C)c13)c(=O)ccn2CCN(C)C | 37.6 | 35.7 |  | 18.6 | 34.4 | 38 | 48.9 | 34.3 |  |  |  |  |  |  |  |  |  |  |  | 
20 | CC1C(=O)O[C@H]2C1CC[C@@]1(C)[C@H](O)CC[C@@]13C[C@]2(O)OO3 (stereo not given in full) | > 100 | > 100 | > 100 | > 100 | > 100 | > 100 | > 100 | > 100 |  |  |  |  |  |  |  |  |  |  |  | 
21 | O=C1CCS/C(=N\S(=O)(=O)c2ccc(N3N=C4c5ccccc5CC4C3c3cccs3)cc2)N1C(=O)c1ccccc1 (stereo not given) |  | > 100 | > 100 | > 100 | 6.07 |  | 24.3 | > 100 | 45.7 | 39600 | 2560 |  | 10.6 | 30.7 | > 100 | 22700 | 53.4 | 23.2 | > 100 | 
